We go through one compound from paper PMC4290489, “Identification of multiple salicylic acid-binding proteins using two high throughput screens” (Frontiers in Plant Science, 2015).

For this assay, the target named is T1, HPR2 (Arabidopsis thaliana, UniProt Q9CA90).
T1 construct: N-terminal His6 (pET28a), from E. coli
T1 sequence (Q9CA90 1-313): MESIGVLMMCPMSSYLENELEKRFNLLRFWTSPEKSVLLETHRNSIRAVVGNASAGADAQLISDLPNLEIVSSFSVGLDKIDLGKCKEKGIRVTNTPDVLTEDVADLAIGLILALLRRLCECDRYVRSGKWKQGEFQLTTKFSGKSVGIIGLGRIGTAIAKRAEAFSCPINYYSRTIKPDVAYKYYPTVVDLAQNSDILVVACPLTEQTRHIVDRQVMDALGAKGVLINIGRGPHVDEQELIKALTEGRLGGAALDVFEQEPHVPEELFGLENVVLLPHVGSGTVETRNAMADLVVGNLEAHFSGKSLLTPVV
The assay can be described thus: SPR competition on 3AESA chip; competition of 4AzSA photo-crosslinking. To be noted: 1-5 mM SA, HBS-EP pH 7.4 (SPR); competes with 3AESA and 4AzSA. It is filed as binding.

Consider `O=C(O)c1ccccc1O` [SA], for which the “SPR competition on 3AESA chip; competition of 4AzSA photo-crosslinking” value is “bound 3AESA and crosslinked to 4AzSA in an SA-inhibitable manner, indicating that they are SABPs”.
